Experimental data: US20100104580A1, “Altered Immunogenic Landscape in HIV-1 Envelope Proteins” (priority 2008, published 2010)

Key:
[1] = molecular target: gp120 binding to both host cell receptors (CD4 and CCR5) (Human immunodeficiency virus type 1 group M subtype B, UniProt P35961); experiment: Dual antagonism of gp120 binding to host cell receptors; set-up: species or system HIV-1; conditions: inhibiting gp120 binding to CD4 and CCR5
[2] = system: interaction between gp120 and four-domain soluble CD4 (4dCD4); conditions: cited from earlier work
[3] = system: interaction between gp120 and 17b; conditions: cited from earlier work
[4] = system: gp 120 from two other HIV-1 strains; experiment: Affinity for gp120 of other strains; type: binding
Text: HIV-1YU2gp120 was produced as described previously in Drosophila S2 cells (Biorn et al., 2004, Biochem. 43:1928-1938; Pancera et al., 2005, J Virol. 79:9954-9969). Cells were spun down and supernatant sterile filtered. Supernatant was purified over an F105-antibody column (NHS-activated Sepharose, Amersham; F 105 antibody coupled according to manufacturer's instructions). […] Supernatant from the hollow fiber bioreactor was purified with an SP-column and bound fractions were then run over a Q-column. Unbound material was concentrated and analysed by SDS-PAGE. The gp120 proteins from HIV-1 SF162 and HIV-192UG037-08 were used in previous inhibitor binding studies (Cocklin et al., 2007, J Virol. 81:3645-3648); HIV-1SF162 gp120 was obtained through NIH AIDS Research and Reference Reagent Program from DAIDS and NIAID, while HIV-192UG037-08 gp120 was a gift as reported in Cocklin et al. (2007, J Virol. 81:3645-3648). The following monoclonal antibodies were obtained through the NIH AIDS Research and Reference Reagent Program: 2G12 from Dr Hermann Katinger; F105 from Dr Marshall Posner and Dr Lisa Cavacini; b12 from Dr Dennis Burton and Carlos Barbas.

[5] = molecular target: T1, gp120YU2 (Human immunodeficiency virus type 1 group M subtype B, UniProt P35961); type: binding, HIV-1; conditions: HNG-156 at the concentrations tested (0.6 μM elsewhere in the source)
T1 construct: for HIV-1 YU2 gp 120 envelope protein; made in house; host or cells: Drosophila S2 cells
Method: b12 binding to gp120YU2 was assayed by SPR using a Biacore 3000 instrument. […] Buffer (PBS+0.005% Tween-20) injection and control surface responses were subtracted from the injection of gp120 over b12 and binding sensorgrams were obtained.
Inhibition curves were generated from response at the end of association. b12 was injected at 100 ul/min with 2.5 min. association and 2 min. dissociation and binding curves were generated from responses at the 100th second of dissociation.
100 ng gp120YU2 was adsorbed to wells. […] Bound antibody was detected with species specific secondary antibody-HRP, and read with OPD assay at 450 nm.

[6] = system: HIV-1 BaL; conditions: recombinant CV-N; cited from earlier work
[7] = female macaques; cited from earlier work
[8] = system: M-tropic and T-tropic strains of HIV-1, SIV, FIV; conditions: cited from earlier work
[9] = system: SHIV89.6P; conditions: cited from earlier work

## CC[C@H](C)[C@H](NC(=O)[C@@H](N)CCCNC(=N)N)C(=O)N[C@@H](CC(N)=O)C(=O)N[C@@H](CC(N)=O)C(=O)N[C@H](C(=O)N1C[C@@H](n2cc(-c3cccc4ccccc34)nn2)C[C@H]1C(=O)N[C@@H](Cc1c[nH]c2ccccc12)C(=O)N[C@@H](CO)C(=O)N[C@@H](CCC(=O)O)C(=O)N[C@@H](C)C(=O)N[C@@H](CCSC)C(=O)N[C@@H](CCSC)C(N)=O)[C@@H](C)CC [HNG-125]
[1]
  dual antagonism function: dual antagonism function

## CC[C@H](C)[C@H](NC(=O)[C@@H](N)CCCNC(=N)N)C(=O)N[C@@H](CC(N)=O)C(=O)N[C@@H](CC(N)=O)C(=O)N[C@H](C(=O)N1CCC[C@H]1C(=O)N[C@@H](Cc1c[nH]c2ccccc12)C(=O)N[C@@H](CO)C(=O)N[C@@H](CCC(=O)O)C(=O)N[C@@H](C)C(=O)N[C@@H](CCSC)C(=O)N[C@@H](CCSC)C(=O)O)[C@@H](C)CC [12p1]
[2]
  inhibition of the gp120-4dCD4 interaction: found to inhibit
[3]
  inhibition of the gp120-17b interaction: found to inhibit

## CC[C@H](C)[C@H](NC(=O)[C@@H](N)CCCNC(=N)N)C(=O)N[C@@H](CC(N)=O)C(=O)N[C@@H](CC(N)=O)C(=O)N[C@H](C(=O)N1C[C@@H](n2cc([C]34[CH]5[CH]6[CH]7[CH]3[Fe]6754389%10[CH]4[CH]3[CH]8[CH]9[CH]4%10)nn2)C[C@H]1C(=O)N[C@@H](Cc1c[nH]c2ccccc12)C(=O)N[C@@H](CO)C(=O)N[C@@H](CCC(=O)O)C(=O)N[C@@H](C)C(=O)N[C@@H](CCSC)C(=O)N[C@@H](CCSC)C(N)=O)[C@@H](C)CC (stereo partly drawn) [HNG-156, RINNIXWSEAMM, where residue 6 is (2s, 4s)-4-(4-ferrocenyl-1H-1, 2, 3-triazol-1-yl) pyrrolidine-2-carboxylic acid]
[4]
  affinity for gp 120 from two other HIV-1 strains: similarly high affinity
[5]
  mAb F105 binding inhibition: inhibited to near completion
[1]
  dual antagonism function: dual antagonism function

B1: CV-N: 11 kD protein originally isolated from the cyanobacteria Nostoc ellipsosporum (protein)
chain: LGKFSQTCYNSAIQGSVLTSTCERTNGGYNTSSIDLNSVIENVDGSLKWQPSNFIETCRNTQLAGSSELAAECKTRAQQFVSTKINLDDHIANIDGTLKYE
[6]
  cytotoxic effects in ectocervical explants: without cytotoxic effects
  infection of human ectocervical explants: blocks HIV-1 BaL infection
[7]
  in vivo efficacy, vaginal challenge: In vivo efficacy has also be shown
[8]
  inactivation of virus strains: inactivates a broad range of M-tropic and T-tropic strains
[9]; gel formulations applied rectally, male macaques
  protection against virus challenge: protected against challenge
[9]; rectal and vaginal macaque in vivo assays
  clinically adverse effects: no clinically adverse effects
